Source: patent US20230104936A1, “TRPML MODULATORS” (Casma Therapeutics, Inc., priority 2019, published 2023)

What follows are molecules tested on TFEB (assay: TFEB nuclear translocation assay, HeLa wt cells). Settings: Homo sapiens, HeLa, 2 h, 2 hrs compound treatment, Table 1 does not say HeLa wt or TRPML1 KO.
Type: cell-based
Method in brief: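 Cells are plated overnight, exposed to compounds for 2 hrs at 37° C, fixed with 4% PFA, blocked, and stained overnight at 4° C with rabbit anti-TFEB. After Alexa 488 secondary and Hoechst, nuclei and a perinuclear ring are segmented to give a nuclear:ring intensity ratio and AC50.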
Molecule `Cc1ccc(S(=O)(=O)Nc2ccccc2N2CCN(C(=O)C(O)c3ccccc3)CC2)cc1` (stereo not drawn) [Compound A-349, N-{2-[4-(2-hydroxy-2-phenylacetyl)piperazin-1-yl]phenyl}-4-methylbenzene-1-sulfonamide] has an AC50 of no less than 10 µM.
`Cc1ccc(S(=O)(=O)Nc2ccccc2N2CCN(C(=O)C(=O)c3ccccc3)CC2)cc1` [Compound A-350, 4-methyl-N-{2-[4-(2-oxo-2-phenylacetyl)piperazin-1-yl]phenyl}benzene-1-sulfonamide] was tested, and the AC50 was 2.01 to 8 µM.
With `CCS(=O)(=O)c1ccc(S(=O)(=O)Nc2ccccc2N2CCN(C(=O)C(C)(C)C)CC2)cc1` [Compound A-351, N-{2-[4-(2,2-dimethylpropanoyl)piperazin-1-yl]phenyl}-4-(ethanesulfonyl)benzene-1-sulfonamide] the AC50 was no less than 10 µM.
For `CN(C)S(=O)(=O)c1ccc(S(=O)(=O)Nc2cccc(Cl)c2N2CCN(C(=O)C(C)(C)C)CC2)cc1` [Compound A-352, N4-{3-chloro-2-[4-(2,2-dimethylpropanoyl)piperazin-1-yl]phenyl}-N1,N1-dimethylbenzene-1,4-disulfonamide], the AC50 was 2.01 to 8 µM.
Molecule `CN(C)S(=O)(=O)c1ccc(S(=O)(=O)Nc2ccccc2N2CCC(C(C)(C)C)CC2)cc1` [Compound A-353, N4-[2-(4-tert-butylpiperidin-1-yl)phenyl]-N1,N1-dimethylbenzene-1,4-disulfonamide] has an AC50 of no more than 2 µM.
`CN(C)S(=O)(=O)c1ccc(S(=O)(=O)Nc2ccccc2N2C3CCC2CN(C(=O)C(C)(C)C)C3)cc1` [Compound A-354, N4-{2-[3-(2,2-dimethylpropanoyl)-3,8-diazabicyclo[3.2.1]octan-8-yl]phenyl}-N1,N1-dimethylbenzene-1,4-disulfonamide] gave an AC50 of no less than 10 µM.
`CN(C)S(=O)(=O)c1ccc(S(=O)(=O)Nc2ccccc2N2CCC(O)(c3ncccc3F)CC2)cc1` [Compound A-355, N4-{2-[4-(3-fluoropyridin-2-yl)-4-hydroxypiperidin-1-yl]phenyl}-N1,N1-dimethylbenzene-1,4-disulfonamide] showed an AC50 of 2.01 to 8 µM.
`CN(C)S(=O)(=O)c1ccc(C(Nc2cc(Cl)ccc2N2CCOCC2)C(F)(F)F)cc1` (stereo not drawn) [Compound A-356, 4-(1-{[5-chloro-2-(morpholin-4-yl)phenyl]amino}-2,2,2-trifluoroethyl)-N,N-dimethylbenzene-1-sulfonamide] was tested, and the AC50 was 2.01 to 8 µM.
Molecule `O=S(=O)(Nc1cc(Cl)ccc1N1CCC2(C1)OCc1ccccc12)c1ccc2c(c1)CCC2` (stereo not drawn) [Compound A-357, N-(5-chloro-2-{3H-spiro[2-benzofuran-1,3′-pyrrolidin]-1′-yl}phenyl)-2,3-dihydro-1H-indene-5-sulfonamide] has an AC50 of no less than 10 µM.
`CN(C)S(=O)(=O)c1ccc(S(=O)(=O)Nc2ccccc2N2CCC(c3cccc(F)c3C(=O)O)CC2)cc1` [Compound A-358, 2-(1-{2-[4-(dimethylsulfamoyl)benzenesulfonamido]phenyl}piperidin-4-yl)-6-fluorobenzoic acid] showed an AC50 of no less than 10 µM.
Work on `CN(C(=O)C1CCN(c2ccccc2NS(=O)(=O)c2ccc(S(=O)(=O)N(C)C)cc2)CC1)C(C)(C)C` [Compound A-359, N-tert-butyl-1-{2-[4-(dimethylsulfamoyl)benzenesulfonamido]phenyl}-N-methylpiperidine-4-carboxamide] yielded an AC50 of no more than 2 µM.
`CN(C(=O)C1(C)CCN(c2ccccc2NS(=O)(=O)c2ccc(S(=O)(=O)N(C)C)cc2)CC1)C(C)(C)C` [Compound A-360, N-tert-butyl-1-{2-[4-(dimethylsulfamoyl)benzenesulfonamido]phenyl}-N,4-dimethylpiperidine-4-carboxamide] was tested, and the AC50 was no more than 2 µM.
In the case of `CN(C)S(=O)(=O)c1ccc(S(=O)(=O)Nc2ccccc2N2CCC(C)(C(=O)NC(C)(C)C)CC2)cc1` [Compound A-361, N-tert-butyl-1-{2-[4-(dimethylsulfamoyl)benzenesulfonamido]phenyl}-4-methylpiperidine-4-carboxamide], the AC50 is reported as no more than 2 µM.
In the case of `O=S(=O)(Nc1cc(Cl)ccc1N1CCCC2(CCCO2)C1)c1ccc2c(c1)CCC2` (stereo not drawn) [Compound A-362, N-(5-chloro-2-{1-oxa-7-azaspiro[4.5]decan-7-yl}phenyl)-2,3-dihydro-1H-indene-5-sulfonamide], the AC50 is reported as no more than 2 µM.
`COCCS(=O)(=O)Nc1cccc(Cl)c1N1CCOCC1` [Compound A-364, N-[3-chloro-2-(morpholin-4-yl)phenyl]-2-methoxyethane-1-sulfonamide] gave an AC50 of no less than 10 µM.
For `O=S(=O)(Cc1ccon1)Nc1cccc(Cl)c1N1CCOCC1` [Compound A-365, N-[3-chloro-2-(morpholin-4-yl)phenyl]-1-(1,2-oxazol-3-yl)methanesulfonamide], the AC50 was no less than 10 µM.
`O=C(Nc1cccc(Cl)c1N1CCOCC1)c1ccc2c(c1)CCC2` [Compound A-366, N-[3-chloro-2-(morpholin-4-yl)phenyl]-2,3-dihydro-1H-indene-5-carboxamide] was tested, and the AC50 was no less than 10 µM.
Molecule `COc1cccc(S(=O)(=O)Nc2cccc(Cl)c2N2CCOCC2)c1` [Compound A-367, N-[3-chloro-2-(morpholin-4-yl)phenyl]-3-methoxybenzene-1-sulfonamide] has an AC50 of 2.01 to 8 µM.
Molecule `O=S(=O)(Cc1ccc(F)c(Cl)c1)Nc1cccc(Cl)c1N1CCOCC1` [Compound A-368, N-[3-chloro-2-(morpholin-4-yl)phenyl]-1-(3-chloro-4-fluorophenyl)methanesulfonamide] has an AC50 of 2.01 to 8 µM.
`O=S(=O)(Nc1cccc(Cl)c1N1CCOCC1)c1cnn2c1CCCC2` [Compound A-369, N-[3-chloro-2-(morpholin-4-yl)phenyl]-4H,5H,6H,7H-pyrazolo[1,5-a]pyridine-3-sulfonamide] showed an AC50 of no less than 10 µM.
Work on `CN(C)C1Cc2ccccc2C12CCN(c1ccccc1NS(=O)(=O)c1ccc(S(=O)(=O)N(C)C)cc1)CC2` (stereo not drawn) [Compound A-370, N4-{2-[2-(dimethylamino)-2,3-dihydrospiro[indene-1,4′-piperidin]-1′-yl]phenyl}-N1,N1-dimethylbenzene-1,4-disulfonamide] yielded an AC50 of no more than 2 µM.
For `COc1ccc(CN2C(=O)C(c3ccc(Cl)cc3F)Oc3ccccc32)cc1` (stereo not drawn) [Compound A-371, 2-(4-chloro-2-fluorophenyl)-4-(4-methoxybenzyl)-2H-benzo[b][1,4]oxazin-3(4H)-one], the AC50 was no more than 2 µM.
Work on `O=S(=O)(Nc1ccccc1N1CCCC1)c1ccc2c(c1)OCCCO2` [Compound A-372, N-[2-(pyrrolidin-1-yl)phenyl]-3,4-dihydro-2H-1,5-benzodioxepine-7-sulfonamide] yielded an AC50 of 2.01 to 8 µM.
`O=S(=O)(Nc1cccc(Cl)c1N1CCOCC1)c1cccc(C2CC2)c1` [Compound A-390, N-[3-chloro-2-(morpholin-4-yl)phenyl]-3-cyclopropylbenzene-1-sulfonamide] was tested, and the AC50 was no more than 2 µM.
Work on `O=S(=O)(Nc1cccc(Cl)c1N1CCOCC1)c1ccc(C2CC2)cc1` [Compound A-391, N-[3-chloro-2-(morpholin-4-yl)phenyl]-4-cyclopropylbenzene-1-sulfonamide] yielded an AC50 of 2.01 to 8 µM.
`O=S(=O)(Nc1cccc(Cl)c1N1CCOCC1)c1ccccc1C1CC1` [Compound A-392, N-[3-chloro-2-(morpholin-4-yl)phenyl]-2-cyclopropylbenzene-1-sulfonamide] showed an AC50 of 2.01 to 8 µM.
Molecule `O=S(=O)(CC1CCC2(CCCC2)O1)Nc1cccc(Cl)c1N1CCOCC1` (stereo not drawn) [Compound A-393, N-[3-chloro-2-(morpholin-4-yl)phenyl]-1-{1-oxaspiro[4.4]nonan-2-yl}methanesulfonamide] has an AC50 of 8.01 to 9.99 µM.
